Where two headings read alike, the source gives them in different places.
Legend:
Assay in all cases: Mueller-Hinton agar dilution method (MIC)
Assay type in all cases: cell-based
[1] = test system: Staphylococcus aureus
[2] = test system: Salmonella (arizona); details: strain QHC-77-3, Table III, read-out: Minimal Inhibitory Concentration
[3] = test system: Enterobacter aerogenes; details: Klebsiella aerogenes; strain STFD-79-14; Table III; read-out: Minimal Inhibitory Concentration
[4] = test system: Escherichia coli; details: read-out: Minimal Inhibitory Concentration
[5] = test system: Proteus morganii; details: Morganella morganii, strain K-79-25; Table III; read-out: Minimal Inhibitory Concentration
[6] = test system: Micrococcus luteus; details: strain PCI 1001, Table III, read-out: Minimal Inhibitory Concentration
Description: (§1) The results appear in Tables I, II, and III.

[7] = test system: Salmonella sp.; details: strain SSC-79-57, Table III, read-out: Minimal Inhibitory Concentration
Description: as §1

[8] = test system: Acinetobacter sp.; details: read-out: Minimal Inhibitory Concentration
[9] = test system: Proteus rettgeri; details: Providencia rettgeri; strain N-76-1; Table III; read-out: Minimal Inhibitory Concentration
[10] = test system: Enterobacter cloacae; details: strain K-79-16, Table III, read-out: Minimal Inhibitory Concentration
[11] = test system: Serratia marcescens; details: read-out: Minimal Inhibitory Concentration
[12] = test system: Pseudomonas aeruginosa; details: read-out: Minimal Inhibitory Concentration
[13] = test system: Enterococcus sp.; details: Table III
[14] = test system: Klebsiella pneumoniae; details: Table III
[15] = beta-lactamase negative, strain SSC 79-3, Table II, read-out: Minimal Inhibitory Concentration
[16] = beta-lactamase negative, strain SSC 79-5, Table II, read-out: Minimal Inhibitory Concentration
[17] = beta-lactamase negative, strain SSC 79-7, Table II, read-out: Minimal Inhibitory Concentration
[18] = beta-lactamase negative, strain SSC 79-9, Table II, read-out: Minimal Inhibitory Concentration
[19] = beta-lactamase negative, strain SSC 79-10, Table II, read-out: Minimal Inhibitory Concentration
[20] = beta-lactamase negative, strain SSC 79-11, Table II, read-out: Minimal Inhibitory Concentration
[21] = beta-lactamase negative, strain SSC 79-14, Table II, read-out: Minimal Inhibitory Concentration
[22] = beta-lactamase negative, strain SSC 79-15, Table II, read-out: Minimal Inhibitory Concentration
[23] = beta-lactamase negative, strain SSC 79-17, Table II, read-out: Minimal Inhibitory Concentration
[24] = beta-lactamase positive, strain SSC 79-24, Table II, read-out: Minimal Inhibitory Concentration
[25] = beta-lactamase positive, strain SSC 79-27, Table II, read-out: Minimal Inhibitory Concentration
[26] = beta-lactamase positive, strain SSC 79-28, Table II, read-out: Minimal Inhibitory Concentration
[27] = beta-lactamase positive, strain SSC 79-36, Table II, read-out: Minimal Inhibitory Concentration
[28] = beta-lactamase positive, strain SSC 79-38, Table II, read-out: Minimal Inhibitory Concentration
[29] = beta-lactamase positive, strain SSC 79-39, Table II, read-out: Minimal Inhibitory Concentration
[30] = beta-lactamase positive, strain SSC 79-41, Table II, read-out: Minimal Inhibitory Concentration
[31] = beta-lactamase positive, strain SSC 79-44, Table II, read-out: Minimal Inhibitory Concentration
[32] = beta-lactamase positive, strain SSC 79-47, Table II, read-out: Minimal Inhibitory Concentration

CO/N=C(\C(=O)N[C@@H]1C(=O)N2C(C(=O)O)=C(CSc3nnnn3C)CS[C@H]12)c1csc(N)n1 [Compound III, Cefmenoxime]
4 µg/mL: MIC [1, 16] | MIC [1, 21] | MIC [1, 22] | MIC [1, 29] | MIC [1, 30]
1 µg/mL: MIC [1, 15] | MIC [1, 17] | MIC [1, 19] | MIC [1, 20]
32 µg/mL: MIC [1, 24]
2 µg/mL: MIC [1, 18] | MIC [1, 23] | MIC [1, 25] | MIC [1, 26] | MIC [1, 27] | MIC [1, 28] | MIC [1, 31] | MIC [1, 32]

CO/N=C(\C(=O)N[C@@H]1C(=O)N2C(C(=O)O)=C(COC(C)=O)CS[C@H]12)c1csc(N)n1 [Compound II]
0.5 µg/mL: MIC ([1]; read-out: Minimal Inhibitory Concentration, beta-lactamase negative, strain SSC 79-3, Table II) | MIC ([1]; read-out: Minimal Inhibitory Concentration, beta-lactamase negative, strain SSC 79-7, Table II) | MIC ([1]; read-out: Minimal Inhibitory Concentration, beta-lactamase negative, strain SSC 79-9, Table II) | MIC ([1]; read-out: Minimal Inhibitory Concentration, beta-lactamase negative, strain SSC 79-10, Table II) | MIC ([1]; read-out: Minimal Inhibitory Concentration, beta-lactamase negative, strain SSC 79-11, Table II)
16 µg/mL: MIC ([1]; read-out: Minimal Inhibitory Concentration, beta-lactamase positive, strain SSC 79-24, Table II)
1 µg/mL: MIC ([1]; read-out: Minimal Inhibitory Concentration, beta-lactamase negative, strain SSC 79-5, Table II) | MIC ([1]; read-out: Minimal Inhibitory Concentration, beta-lactamase negative, strain SSC 79-17, Table II) | MIC ([1]; read-out: Minimal Inhibitory Concentration, beta-lactamase positive, strain SSC 79-27, Table II) | MIC ([1]; read-out: Minimal Inhibitory Concentration, beta-lactamase positive, strain SSC 79-28, Table II) | MIC ([1]; read-out: Minimal Inhibitory Concentration, beta-lactamase positive, strain SSC 79-36, Table II) | MIC ([1]; read-out: Minimal Inhibitory Concentration, beta-lactamase positive, strain SSC 79-38, Table II) | MIC ([1]; read-out: Minimal Inhibitory Concentration, beta-lactamase positive, strain SSC 79-39, Table II) | MIC ([1]; read-out: Minimal Inhibitory Concentration, beta-lactamase positive, strain SSC 79-44, Table II) | MIC ([1]; read-out: Minimal Inhibitory Concentration, beta-lactamase positive, strain SSC 79-47, Table II)
2 µg/mL: MIC ([1]; read-out: Minimal Inhibitory Concentration, beta-lactamase negative, strain SSC 79-14, Table II) | MIC ([1]; read-out: Minimal Inhibitory Concentration, beta-lactamase negative, strain SSC 79-15, Table II) | MIC ([1]; read-out: Minimal Inhibitory Concentration, beta-lactamase positive, strain SSC 79-41, Table II)

CO/N=C(\C(=O)N[C@@H]1C(=O)N2C(C(=O)O)=CCS[C@H]12)c1csc(N)n1 [Compound IV, Ceftizoxime]
0.5 µg/mL: MIC [1, 17] | MIC [1, 20] | MIC [1, 25] | MIC [1, 26] | MIC [1, 28] | MIC [1, 31]
4 µg/mL: MIC [1, 21] | MIC [1, 29]
1 µg/mL: MIC [1, 15] | MIC [1, 16] | MIC [1, 18] | MIC [1, 19] | MIC [1, 22] | MIC [1, 23] | MIC [1, 27] | MIC [1, 30] | MIC [1, 32]
> 128 µg/mL: MIC [1, 24]

CO/N=C(\C(=O)N[C@@H]1C(=O)N2C(C(=O)O)=C(CSc3snnc3C)CS[C@H]12)c1csc(N)n1 [Compound Ib(i), 7-β-[α-syn-methoxyimino-α-(2-aminothiazol-4-yl)acetamido]-3-[(1,2,3-thiadiazol-4-methyl-5-ylthio)methyl]-3-cephem-4-carboxylic acid]
8 µg/mL: MIC ([13]; Enterococcus, strain OSU-75-1, read-out: Minimal Inhibitory Concentration) | Minimal Inhibitory Concentration ([13]; strain SM-77-15)
0.25 µg/mL: MIC ([1]; strain SSC-79-18, Table III, read-out: Minimal Inhibitory Concentration) | MIC ([1]; strain Smith, Table III, read-out: Minimal Inhibitory Concentration) | MIC [10]
1 µg/mL: MIC ([1]; strain SSC-80-15, Table III, read-out: Minimal Inhibitory Concentration) | MIC [7]
≤ 0.03 µg/mL: MIC ([4]; ATCC25922, strain ATCC 25922, Table III) | MIC ([4]; strain ESS 22-31, Table III) | MIC ([4]; strain STFD-79-20, Table III) | MIC [5] | MIC [6] | MIC [9] | MIC ([14]; Klebsiella pneumoniae, strain STFD-79-6, read-out: Minimal Inhibitory Concentration)
0.5 µg/mL: MIC ([1]; strain FU-79-19-2, Table III, read-out: Minimal Inhibitory Concentration)
2 µg/mL: MIC ([11]; strain QHC-77-2, Table III) | MIC ([11]; strain TUL-78-15, Table III)
0.06 µg/mL: MIC [2] | MIC ([4]; strain #311, Table III)
64 µg/mL: MIC ([12]; ATCC27853, strain ATCC 27853, Table III) | MIC ([12]; strain 12-4-4, Table III) | MIC ([12]; strain SSC-78-13, Table III)
0.12 µg/mL: MIC [3]
32 µg/mL: MIC ([8]; strain STFD-79-17, Table III)
4 µg/mL: MIC ([8]; strain K-77-1, Table III)
≤ .03 µg/mL: Minimal Inhibitory Concentration ([14]; strain AD) | Minimal Inhibitory Concentration ([14]; strain SSC-78-1)

CO[C@@]1(NC(=O)C(C(=O)O)c2ccc(O)cc2)C(=O)N2C(C(=O)O)=C(CSc3nnnn3C)CO[C@@H]21 (stereo partly drawn) [Compound V, Moxalactam]
2 µg/mL: MIC [1, 15] | MIC [1, 17] | MIC [1, 18] | MIC [1, 19] | MIC [1, 20] | MIC [1, 28] | MIC [1, 31]
32 µg/mL: MIC [1, 24]
4 µg/mL: MIC [1, 21] | MIC [1, 23] | MIC [1, 25] | MIC [1, 26] | MIC [1, 27] | MIC [1, 29] | MIC [1, 30] | MIC [1, 32]
8 µg/mL: MIC [1, 16] | MIC [1, 22]

CO[C@@]1(NC(=O)Cc2cccs2)C(=O)N2C(C(=O)O)=C(COC(N)=O)CS[C@@H]21 [Compound VI, Cefoxitin]
4 µg/mL: MIC [1, 22] | MIC [1, 29] | MIC [1, 30]
2 µg/mL: MIC [1, 15] | MIC [1, 16] | MIC [1, 21] | MIC [1, 23] | MIC [1, 25] | MIC [1, 26] | MIC [1, 27] | MIC [1, 28] | MIC [1, 31] | MIC [1, 32]
1 µg/mL: MIC [1, 17] | MIC [1, 18] | MIC [1, 19] | MIC [1, 20]
16 µg/mL: MIC [1, 24]

CCN1CCN(C(=O)N[C@@H](C(=O)N[C@@H]2C(=O)N3C(C(=O)O)=C(CSc4nnnn4C)CS[C@H]23)c2ccc(O)cc2)C(=O)C1=O [Compound VII, Cefaperazone]
0.5 µg/mL: MIC [1, 15] | MIC [1, 17] | MIC [1, 18] | MIC [1, 19]
1 µg/mL: MIC [1, 23] | MIC [1, 25] | MIC [1, 28] | MIC [1, 31]
128 µg/mL: MIC [1, 24]
0.25 µg/mL: MIC [1, 20]
2 µg/mL: MIC [1, 16] | MIC [1, 21] | MIC [1, 22] | MIC [1, 26] | MIC [1, 27] | MIC [1, 29] | MIC [1, 30] | MIC [1, 32]
